Data as given in ChEMBL document CHEMBL2406921, “Regioselective synthesis, characterization and antimicrobial evaluation of S-glycosides and S,N-diglycosides of 1,2-Dihydro-5-(1H-indol-2-yl)-1,2,4-triazole-3-thione” (2013).

Key:
Assay type in all cases: functional
Details in all cases: read-out: DIZ
Aspergillus niger = assay: Antifungal activity against Aspergillus niger at 5 mg/ml by paper disc diffusion method
Rhizoctonia solani = assay: Antifungal activity against Rhizoctonia solani at 5 mg/ml by paper disc diffusion method
Fusarium oxysporum = assay: Antifungal activity against Fusarium oxysporum at 5 mg/ml by paper disc diffusion method
Pseudomonas aeruginosa = assay: Antibacterial activity against Pseudomonas aeruginosa at 5 mg/ml after 24 hrs by agar-diffusion technique
Bacillus subtilis = assay: Antibacterial activity against Bacillus subtilis at 5 mg/ml after 24 hrs by agar-diffusion technique

CCOC(=O)/C(C)=N/Nc1ccccc1
zone of inhibition at 5000 µg/mL (Aspergillus niger): 1.85 mm
zone of inhibition at 5000 µg/mL (Rhizoctonia solani): 1.95 mm
zone of inhibition at 5000 µg/mL (Fusarium oxysporum): 2.3 mm
zone of inhibition at 5000 µg/mL (Pseudomonas aeruginosa): 2.65 mm
zone of inhibition at 5000 µg/mL (Bacillus subtilis): 12 mm

O=C(N[C@H](CO)[C@H](O)c1ccc([N+](=O)[O-])cc1)C(Cl)Cl [CHLORAMPHENICOL]
zone of inhibition at 5000 µg/mL (Pseudomonas aeruginosa): 7.9 mm
zone of inhibition at 5000 µg/mL (Bacillus subtilis): 12 mm

NNC(=O)c1cc2ccccc2[nH]1
zone of inhibition at 5000 µg/mL (Aspergillus niger): 0 mm
zone of inhibition at 5000 µg/mL (Rhizoctonia solani): 0.85 mm
zone of inhibition at 5000 µg/mL (Fusarium oxysporum): 1.3 mm
zone of inhibition at 5000 µg/mL (Pseudomonas aeruginosa): 3 mm
zone of inhibition at 5000 µg/mL (Bacillus subtilis): 12 mm

NC(=S)NNC(=O)c1cc2ccccc2[nH]1
zone of inhibition at 5000 µg/mL (Aspergillus niger): 0 mm
zone of inhibition at 5000 µg/mL (Rhizoctonia solani): 1.05 mm
zone of inhibition at 5000 µg/mL (Fusarium oxysporum): 1 mm
zone of inhibition at 5000 µg/mL (Pseudomonas aeruginosa): 2.5 mm
zone of inhibition at 5000 µg/mL (Bacillus subtilis): 12 mm

CC(=O)OC[C@H]1O[C@@H](Sc2n[nH]c(-c3cc4ccccc4[nH]3)n2)[C@H](OC(C)=O)[C@@H](OC(C)=O)[C@H]1OC(C)=O
zone of inhibition at 5000 µg/mL (Aspergillus niger): 0 mm
zone of inhibition at 5000 µg/mL (Rhizoctonia solani): 0.75 mm
zone of inhibition at 5000 µg/mL (Fusarium oxysporum): 2.1 mm
zone of inhibition at 5000 µg/mL (Pseudomonas aeruginosa): 0.5 mm
zone of inhibition at 5000 µg/mL (Bacillus subtilis): 12 mm

CC(=O)OC[C@H]1O[C@@H](Sc2n[nH]c(-c3cc4ccccc4[nH]3)n2)[C@H](OC(C)=O)[C@@H](OC(C)=O)[C@@H]1OC(C)=O
zone of inhibition at 5000 µg/mL (Aspergillus niger): 0 mm
zone of inhibition at 5000 µg/mL (Rhizoctonia solani): 0.6 mm
zone of inhibition at 5000 µg/mL (Fusarium oxysporum): 0 mm
zone of inhibition at 5000 µg/mL (Pseudomonas aeruginosa): 3.25 mm
zone of inhibition at 5000 µg/mL (Bacillus subtilis): 12 mm

S=c1nc(-c2cc3ccccc3[nH]2)[nH][nH]1
zone of inhibition at 5000 µg/mL (Aspergillus niger): 0 mm
zone of inhibition at 5000 µg/mL (Rhizoctonia solani): 0.8 mm
zone of inhibition at 5000 µg/mL (Fusarium oxysporum): 1.7 mm
zone of inhibition at 5000 µg/mL (Pseudomonas aeruginosa): 3.5 mm
zone of inhibition at 5000 µg/mL (Bacillus subtilis): 12 mm

CC(=O)N[C@@H]1[C@@H](OC(C)=O)[C@H](OC(C)=O)[C@@H](COC(C)=O)O[C@H]1Sc1n[nH]c(-c2cc3ccccc3[nH]2)n1
zone of inhibition at 5000 µg/mL (Aspergillus niger): 0 mm
zone of inhibition at 5000 µg/mL (Rhizoctonia solani): 1.75 mm
zone of inhibition at 5000 µg/mL (Fusarium oxysporum): 0 mm
zone of inhibition at 5000 µg/mL (Pseudomonas aeruginosa): 3.9 mm
zone of inhibition at 5000 µg/mL (Bacillus subtilis): 5.1 mm

CCOC(=O)c1cc2ccccc2[nH]1
zone of inhibition at 5000 µg/mL (Aspergillus niger): 1.3 mm
zone of inhibition at 5000 µg/mL (Rhizoctonia solani): 2.7 mm
zone of inhibition at 5000 µg/mL (Fusarium oxysporum): 1.9 mm
zone of inhibition at 5000 µg/mL (Pseudomonas aeruginosa): 4.85 mm
zone of inhibition at 5000 µg/mL (Bacillus subtilis): 5.6 mm

CC(=O)OC[C@H]1O[C@@H](n2nc(-c3cc4ccccc4[nH]3)nc2S[C@@H]2O[C@H](COC(C)=O)[C@@H](OC(C)=O)[C@H](OC(C)=O)[C@H]2OC(C)=O)[C@H](OC(C)=O)[C@@H](OC(C)=O)[C@@H]1OC(C)=O
zone of inhibition at 5000 µg/mL (Aspergillus niger): 0 mm
zone of inhibition at 5000 µg/mL (Rhizoctonia solani): 1.15 mm
zone of inhibition at 5000 µg/mL (Fusarium oxysporum): 1.95 mm
zone of inhibition at 5000 µg/mL (Pseudomonas aeruginosa): 2.5 mm
zone of inhibition at 5000 µg/mL (Bacillus subtilis): 6.5 mm
